Measurements: PubChem BioAssay (NCI)
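Five concentrations, 48 hours, 96-well plates. TGI: concentration producing complete growth inhibition.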

Tests used:
Experiment in all cases: NCI tumour cell line growth inhibition, 48 h
786-0 renal = system: 786-0 renal
A498 renal = system: A498 renal
A549 NSCLC = system: A549 NSCLC
ACHN renal = system: ACHN renal
CAKI-1 renal = system: CAKI-1 renal
CCRF-CEM leukemia = system: CCRF-CEM leukemia
COLO 205 colon = system: COLO 205 colon
DLD-1 colon = system: DLD-1 colon
DMS 114 small cell lung = system: DMS 114 small cell lung
DMS 273 small cell lung = system: DMS 273 small cell lung
EKVX NSCLC = system: EKVX NSCLC
HCC-2998 colon = system: HCC-2998 colon
HCT-116 colon = system: HCT-116 colon
HCT-15 colon = system: HCT-15 colon
HL-60(TB) leukemia = system: HL-60(TB) leukemia
HOP-18 NSCLC = system: HOP-18 NSCLC
HOP-62 NSCLC = system: HOP-62 NSCLC
HOP-92 NSCLC = system: HOP-92 NSCLC
HT29 colon = system: HT29 colon
IGROV1 ovarian = system: IGROV1 ovarian
K-562 leukemia = system: K-562 leukemia
KM12 colon = system: KM12 colon
KM20L2 colon = system: KM20L2 colon
LOX IMVI melanoma = system: LOX IMVI melanoma
LXFL 529 NSCLC = system: LXFL 529 NSCLC
M14 melanoma = system: M14 melanoma
M19-MEL melanoma = system: M19-MEL melanoma
MALME-3M melanoma = system: MALME-3M melanoma
MOLT-4 leukemia = system: MOLT-4 leukemia
NCI-H226 lung = system: NCI-H226 lung
NCI-H23 lung = system: NCI-H23 lung
NCI-H460 lung = system: NCI-H460 lung
NCI-H522 lung = system: NCI-H522 lung
OVCAR-3 ovarian = system: OVCAR-3 ovarian
OVCAR-4 ovarian = system: OVCAR-4 ovarian
OVCAR-5 ovarian = system: OVCAR-5 ovarian
OVCAR-8 ovarian = system: OVCAR-8 ovarian
RPMI-8226 leukemia = system: RPMI-8226 leukemia
RXF 393 renal = system: RXF 393 renal
RXF-631 renal = system: RXF-631 renal
SF-268 CNS = system: SF-268 CNS
SF-295 CNS = system: SF-295 CNS
SF-539 CNS = system: SF-539 CNS
SK-MEL-2 melanoma = system: SK-MEL-2 melanoma
SK-MEL-28 melanoma = system: SK-MEL-28 melanoma
SK-MEL-5 melanoma = system: SK-MEL-5 melanoma
SK-OV-3 ovarian = system: SK-OV-3 ovarian
SN12C renal = system: SN12C renal
SNB-19 CNS = system: SNB-19 CNS
SNB-75 CNS = system: SNB-75 CNS
SNB-78 CNS = system: SNB-78 CNS
SR leukemia = system: SR leukemia
SW-620 colon = system: SW-620 colon
TK-10 renal = system: TK-10 renal
U251 CNS = system: U251 CNS
UACC-257 melanoma = system: UACC-257 melanoma
UACC-62 melanoma = system: UACC-62 melanoma
UO-31 renal = system: UO-31 renal
XF 498 CNS = system: XF 498 CNS

CC1NOC(=O)C1N=Nc1ccccc1Br (configuration not stated)
TGI (786-0 renal): 39.8 µM
TGI (A498 renal): 51.3 µM
TGI (A549 NSCLC): 69 µM
TGI (ACHN renal): > 100 µM
TGI (CAKI-1 renal): 38.4 µM
TGI (CCRF-CEM leukemia): 74.2 µM
TGI (COLO 205 colon): 35.7 µM
TGI (DLD-1 colon): > 100 µM
TGI (DMS 114 small cell lung): 35.7 µM
TGI (DMS 273 small cell lung): > 100 µM
TGI (EKVX NSCLC): 80.3 µM
TGI (HCC-2998 colon): > 100 µM
TGI (HCT-116 colon): 92.8 µM
TGI (HCT-15 colon): 84.8 µM
TGI (HL-60(TB) leukemia): 40.8 µM
TGI (HOP-18 NSCLC): > 100 µM
TGI (HOP-62 NSCLC): > 100 µM
TGI (HOP-92 NSCLC): 52.2 µM
TGI (HT29 colon): > 100 µM
TGI (IGROV1 ovarian): > 100 µM
TGI (K-562 leukemia): 52.8 µM
TGI (KM12 colon): 44.8 µM
TGI (KM20L2 colon): > 100 µM
TGI (LOX IMVI melanoma): > 100 µM
TGI (LXFL 529 NSCLC): 31.2 µM
TGI (M14 melanoma): 43.3 µM
TGI (M19-MEL melanoma): 35.8 µM
TGI (MALME-3M melanoma): 50.5 µM
TGI (MOLT-4 leukemia): 67 µM
TGI (NCI-H226 lung): 81.2 µM
TGI (NCI-H23 lung): 49.1 µM
TGI (NCI-H460 lung): 57.9 µM
TGI (NCI-H522 lung): 33.8 µM
TGI (OVCAR-3 ovarian): 43.8 µM
TGI (OVCAR-4 ovarian): > 100 µM
TGI (OVCAR-5 ovarian): > 100 µM
TGI (OVCAR-8 ovarian): 44.9 µM
TGI (RPMI-8226 leukemia): 91.6 µM
TGI (RXF 393 renal): 32 µM
TGI (RXF-631 renal): > 100 µM
TGI (SF-268 CNS): 66 µM
TGI (SF-295 CNS): > 100 µM
TGI (SF-539 CNS): 51.2 µM
TGI (SK-MEL-2 melanoma): 36.7 µM
TGI (SK-MEL-28 melanoma): 79.8 µM
TGI (SK-MEL-5 melanoma): 29.1 µM
TGI (SK-OV-3 ovarian): 99 µM
TGI (SN12C renal): 59.5 µM
TGI (SNB-19 CNS): > 100 µM
TGI (SNB-75 CNS): 64 µM
TGI (SNB-78 CNS): 88.8 µM
TGI (SR leukemia): 58.2 µM
TGI (SW-620 colon): 30.9 µM
TGI (TK-10 renal): 57.4 µM
TGI (U251 CNS): 46.1 µM
TGI (UACC-257 melanoma): 44 µM
TGI (UACC-62 melanoma): 48.1 µM
TGI (UO-31 renal): 33.1 µM
TGI (XF 498 CNS): 40 µM

COC(=O)C(CCCCCCCC(C(=O)OC)c1nc2n(c1O)C(=N)N=N2)c1nc2n(c1O)C(=N)N=N2 (configuration not stated)
TGI (786-0 renal): > 100 µM
TGI (A498 renal): > 100 µM
TGI (A549 NSCLC): > 100 µM
TGI (ACHN renal): > 100 µM
TGI (CAKI-1 renal): > 100 µM
TGI (CCRF-CEM leukemia): > 100 µM
TGI (COLO 205 colon): > 100 µM
TGI (DLD-1 colon): > 100 µM
TGI (DMS 114 small cell lung): > 100 µM
TGI (DMS 273 small cell lung): > 100 µM
TGI (EKVX NSCLC): > 100 µM
TGI (HCC-2998 colon): > 100 µM
TGI (HCT-116 colon): > 100 µM
TGI (HCT-15 colon): > 100 µM
TGI (HL-60(TB) leukemia): > 100 µM
TGI (HOP-18 NSCLC): > 100 µM
TGI (HOP-62 NSCLC): > 100 µM
TGI (HOP-92 NSCLC): > 100 µM
TGI (HT29 colon): > 100 µM
TGI (IGROV1 ovarian): > 100 µM
TGI (KM12 colon): > 100 µM
TGI (KM20L2 colon): > 100 µM
TGI (LOX IMVI melanoma): > 100 µM
TGI (LXFL 529 NSCLC): > 100 µM
TGI (M14 melanoma): > 100 µM
TGI (M19-MEL melanoma): > 68.3 µM
TGI (MALME-3M melanoma): > 100 µM
TGI (MOLT-4 leukemia): > 100 µM
TGI (NCI-H226 lung): > 100 µM
TGI (NCI-H23 lung): > 100 µM
TGI (NCI-H460 lung): > 100 µM
TGI (NCI-H522 lung): > 100 µM
TGI (OVCAR-3 ovarian): > 100 µM
TGI (OVCAR-4 ovarian): > 100 µM
TGI (OVCAR-5 ovarian): > 100 µM
TGI (OVCAR-8 ovarian): > 100 µM
TGI (RPMI-8226 leukemia): > 100 µM
TGI (RXF 393 renal): > 100 µM
TGI (RXF-631 renal): > 100 µM
TGI (SF-268 CNS): > 100 µM
TGI (SF-295 CNS): > 100 µM
TGI (SF-539 CNS): > 100 µM
TGI (SK-MEL-2 melanoma): > 100 µM
TGI (SK-MEL-28 melanoma): > 100 µM
TGI (SK-MEL-5 melanoma): > 100 µM
TGI (SK-OV-3 ovarian): > 100 µM
TGI (SN12C renal): > 100 µM
TGI (SNB-19 CNS): > 100 µM
TGI (SNB-75 CNS): > 85.6 µM
TGI (SNB-78 CNS): > 100 µM
TGI (SR leukemia): > 100 µM
TGI (SW-620 colon): > 100 µM
TGI (TK-10 renal): > 100 µM
TGI (U251 CNS): > 100 µM
TGI (UACC-257 melanoma): > 100 µM
TGI (UACC-62 melanoma): > 100 µM
TGI (UO-31 renal): > 100 µM
TGI (XF 498 CNS): > 100 µM
